# Test results from patent US20250154250A1, “CEACAM5 ADC-ANTI-PD1/PD-L1 COMBINATION THERAPY” (SANOFI, priority 2021, published 2025).
# Like-named read-outs stand apart in the source and are kept apart here.
# What was measured:
# [1] = system: subcutaneous colon MC38 syngeneic tumor; test: subcutaneous colon MC38 syngeneic tumor model; conditions: for Drug death (day) / Mean body weight change in % at nadir (day) / Regression CR / Regression PR: n=6; for tolerability of treatments: doses lower than maximal tolerated dose (MTD)
# Description: […] Control groups were left untreated. The doses of the compounds used are given in mg/kg.
# For the evaluation of anti-tumor activity, animals were weighed, and tumors were measured by caliper 2 times weekly. A dosage producing a 20% weight loss at nadir (mean of group) or 10% or more drug deaths, was considered an excessively toxic dosage. Animal body weights included the tumor weights. Tumor volumes were calculated using the formula mass (mm^3)=[length (mm)×width (mm)×width (mm)]/2. The primary efficacy end points are ΔT/ΔC, percent median regression, partial and complete regressions (PR and CR).
# Changes in tumor volume for each treated (T) and control (C) are calculated for each tumor by subtracting the tumor volume on the day of first treatment (staging day) from the tumor volume on the specified observation day. The median ΔT is calculated for the treated group and the median ΔC is calculated for the control group. Then the ratio ΔT/ΔC is calculated and expressed as a percentage: ΔT/ΔC=(delta T/delta C)×100.
# The dose is considered as therapeutically active when ΔT/ΔC is lower than 40% and very active when ΔT/ΔC is lower than 10%.
# % tumor regression is defined as the % of tumor volume decrease in the treated group at a specified observation day compared to its volume on the first day of first treatment.
# At a specific time point and for each animal, % regression is calculated. The median % regression is then calculated for the group:
# Partial regression (PR): Regressions are defined as partial if the tumor volume decreases to 50% of the tumor volume at the start of treatment.
# Complete regression (CR): Complete regression is achieved when tumor volume=0 mm^3 (CR is considered when tumor volume cannot be recorded).
# Control groups were left untreated. The doses of the compounds used are given in mg/kg.
# See above (Ex 2) for the conditions of anti-tumor activity and toxicity evaluation.
# [2] = biological target: CEACAM1 (Homo sapiens, UniProt P13688)
# [3] = system: NSQ NSCLC with tumor CEACAM5 expression
# [4] = biological target: CEACAM8 (Homo sapiens, UniProt P31997)
# [5] = system: human primary colon and stomach tumors; conditions: mice bearing human primary colon and stomach tumors; see WO 2014/079886; cited from earlier work
# [6] = biological target: CEACAM6 (Homo sapiens, UniProt P40199)
# [7] = biological target: CEACAM7 (Homo sapiens, UniProt Q14002)
# [8] = antibody as single agent 10 mg/kg IV (total 40)
# [9] = huMAb2-3-SPDB-DM4 15 mg/kg IV day 10, alone or + antibody 10 mg/kg IV
# [10] = huMAb2-3-SPDB-DM4 25 mg/kg IV day 10, alone or + antibody 10 mg/kg IV
# Chain of CEACAM6 (P40199 35-320): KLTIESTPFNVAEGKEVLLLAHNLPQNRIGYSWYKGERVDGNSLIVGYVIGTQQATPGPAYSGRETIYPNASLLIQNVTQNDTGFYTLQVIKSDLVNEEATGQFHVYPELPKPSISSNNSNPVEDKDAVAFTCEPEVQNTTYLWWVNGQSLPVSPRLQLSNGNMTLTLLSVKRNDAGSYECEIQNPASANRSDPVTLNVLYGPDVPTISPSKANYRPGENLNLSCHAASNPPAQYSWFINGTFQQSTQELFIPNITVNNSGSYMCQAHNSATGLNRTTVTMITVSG
# Chain of CEACAM8 (P31997 35-320): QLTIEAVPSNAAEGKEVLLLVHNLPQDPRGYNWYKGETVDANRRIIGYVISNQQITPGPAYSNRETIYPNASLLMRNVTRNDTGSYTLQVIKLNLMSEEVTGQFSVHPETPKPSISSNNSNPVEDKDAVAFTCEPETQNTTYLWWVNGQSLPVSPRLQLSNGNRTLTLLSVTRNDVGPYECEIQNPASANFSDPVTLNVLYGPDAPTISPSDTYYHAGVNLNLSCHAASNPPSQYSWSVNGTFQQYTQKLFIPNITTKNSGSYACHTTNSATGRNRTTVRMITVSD
# Chain of CEACAM7 (Q14002 36-242): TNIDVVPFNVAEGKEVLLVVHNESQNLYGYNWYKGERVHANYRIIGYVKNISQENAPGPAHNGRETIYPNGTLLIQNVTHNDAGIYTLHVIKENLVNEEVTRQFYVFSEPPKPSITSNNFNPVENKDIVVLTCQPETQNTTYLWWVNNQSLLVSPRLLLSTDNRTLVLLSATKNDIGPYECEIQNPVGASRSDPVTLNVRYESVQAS
# Chain of CEACAM1 (P13688 35-526): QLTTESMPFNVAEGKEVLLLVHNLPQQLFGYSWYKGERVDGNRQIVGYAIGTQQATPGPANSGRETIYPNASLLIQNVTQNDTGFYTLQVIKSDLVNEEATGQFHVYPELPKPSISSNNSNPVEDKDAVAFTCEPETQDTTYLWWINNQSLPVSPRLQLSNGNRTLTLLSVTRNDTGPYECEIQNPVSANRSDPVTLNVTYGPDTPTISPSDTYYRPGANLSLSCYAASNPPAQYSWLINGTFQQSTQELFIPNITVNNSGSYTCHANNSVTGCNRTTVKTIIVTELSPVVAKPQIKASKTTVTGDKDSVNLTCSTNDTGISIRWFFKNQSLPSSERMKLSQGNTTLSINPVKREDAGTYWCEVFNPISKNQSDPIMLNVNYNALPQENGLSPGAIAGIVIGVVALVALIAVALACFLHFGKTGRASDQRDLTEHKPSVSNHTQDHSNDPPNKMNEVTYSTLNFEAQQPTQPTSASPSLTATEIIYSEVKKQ
substance,measurement,setting,value
"Atezolizumab [anti-mu/huPD-L1 (Atezolizumab), reference compound]",Biological comments,[1]; [8],Marginally
same,Biological comments,"[1]; antibody as single agent 10 mg/kg IV (total 40), listed as anti-mu/PD-L1 mAb",marginally active
same,Drug death (day),[1]; [8],0/6
same,Mean body weight change in % at nadir (day),[1]; [8],+2.08%
same,Regression CR,[1]; [8],1/6
same,Regression PR,[1]; [8],1/6
same,tolerability of treatments,[1],well tolerated and did not induce toxicity
tusamitamab ravtansine,recognition of CEACAM1,[2],does not recognize
same,overall response rate per RECIST 1.1,"[3]; 28 heavily pre-treated patients, tumor CEACAM5 expression ≥1% and <5 0%",7.1%
same,overall response rate per RECIST 1.1,"[3]; 64 heavily pre-treated patients, tumor CEACAM5 expression ≥50%",20.3%
same,tolerability of treatments,[1],well tolerated and did not induce toxicity
same,Biological comments,[1]; [9],Inactive
same,Median ΔT/ΔC in % (D 22),[1]; [9],46%
same,Drug death (day),[1]; [9],0/6
same,Mean body weight change in % at nadir (day),[1]; [9],+3.95%
same,Regression CR,[1]; [9],0/6
same,Regression PR,[1]; [9],0/6
same,Biological comments,[1]; [10],highly active
same,Median ΔT/ΔC in % (D 22),[1]; [10],<0%
same,Drug death (day),[1]; [10],0/6
same,Mean body weight change in % at nadir (day),[1]; [10],+1.30%
same,Regression CR,[1]; [10],1/6
same,Regression PR,[1]; [10],4/6
same,recognition of CEACAM8,[4],does not recognize
same,tumor growth in vivo,[5],markedly inhibit tumor growth
same,recognition of CEACAM6,[6],does not recognize
same,recognition of CEACAM7,[7],does not recognize
